Here are results for 21 molecules from patent publication US20160168540A1, “COMPOSITION FOR MAINTAINING PLATELET FUNCTION” (KYOTO UNIVERSITY, priority 2013, published 2016).

Entries after “also recorded” stand apart in the source; their conditions may differ. Where two headings read alike, the source gives them in different places.

For data set [1], the system named is iPS cell-derived platelets. Nature of the data set: Function-maintaining effect on iPS cell-derived platelets (flow cytometry of CD41a/CD42a/CD42b). It is filed as cell-based, human. How it is done:
Human iPS cells (hiPS cells), an iPS cell line (TkDA3-4) established at the University of Tokyo by introducing Oct4, Klf4, Sox2, and c-Myc into human-derived skin cells were cultured on inactivated mouse fibroblasts by treating with 10 μg/mL MitomycinC (manufactured by Wako Pure Chemical Industries Ltd.) in a medium mixture of Dulbecco's modified Eagle's medium and Ham's F-12 medium (manufactured by Sigma-Aldrich Co.) (mixing ratio 1:1) supplemented with 0.1 mM non-essential amino acid (manufactured by Invitrogen Corp.), PSG (100 U/mL penicillin, 100 U/mL streptomycin, and 2 mM L-glutamine) (manufactured by Invitrogen Corp.), 20% knockout serum replacement additive (KSR, manufactured by Invitrogen Corp.), 0.1 mM 2-mercaptoethanol (manufactured by Invitrogen Corp.), and 5 ng/ml basic fibroblast growth factor (bFGF, manufactured by Wako Pure Chemical Industries Ltd.). The cells were subcultured every 3 days, and those cells maintaining an undifferentiated state were used.
In addition, mouse embryo-derived fibroblasts, a C3H10T½ cell line (hereinafter also referred to as “10T½ cells”), purchased from RIKEN BioResource Center were cultured in basal medium Eagle (BME, manufactured by Invitrogen Corp.) supplemented with 10% fetal bovine serum (FBS) and PSG (100 U/mL penicillin, 100 U/mL streptomycin, and 2 mM L-glutamine) (manufactured by Invitrogen Corp.). Then, the 10T½ cells, which had been deactivated in advance by treating with MitomycinC, were seeded so as to give a cell count of 8×10^6/10-cm dish for use as feeder cells. […]
Next, the sac structures were detached from the dish, split open, passed through a 40-μm cell strainer (manufactured by BD), and then centrifuged at 1,500 rpm for 8 minutes to collect hematopoietic progenitor cells. […] Then, the number of cells was counted. […]

A further data set has as its target T1, TACE (ADAM17) (Homo sapiens, UniProt P78536).
T1 construct: made in house; host or cells: mammalian cells or insect cells
As to the kind of experiment: TACE (ADAM17) inhibition test. It is filed as biochemical. The conditions noted are these: fluorescent synthetic substrate, 37° C. for 1.5 hours. Summed up:
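Recombinant human TACE (mammalian or insect cell expressed) cleaves Nma-LAQAVRSSK(Dnp)-D-Arg-NH2 quenched substrate, 1.5 h at 37 °C. Fluorescence read at Ex 355/Em 460 nm; IC50 from inhibition vs no-compound control, binned A (<100 nM) or B (≥100 nM).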

Data set [2] has as its system human peripheral blood-derived platelets. As to the kind of experiment: Function-maintaining effect on human peripheral blood-derived platelets (CCCP-enhanced GPIbα shedding). In kind it is cell-based. The conditions noted are these: 0.1 to 100 μM, with 100 μM of CCCP, 37° C. for 24 hours; listed as S-108470. How it is done: First, ACD was added in a ratio of 1/10 to human peripheral blood obtained by collecting blood, and centrifuged at 900 rpm for 10 minutes without a break. The supernatant obtained by the centrifugation was further centrifuged at 1,500 rpm for 10 minutes without a break, and then the supernatant was removed. The obtained precipitate was suspended in a Tyrode-HEPES buffer (not containing calcium). The number of platelets in the suspension was counted, and the platelet-containing suspension (Washed Platelet) was adjusted to have a fixed number (about 5×10^7) of platelets in 200 μL of the Tyrode-HEPES buffer (not containing calcium). Next, as described in Protocol 2 shown in FIG. 1, one of either S-108470 (0.1 to 100 μM), TACE inhibitor S (50 μM), or DMSO was added together with 100 μM of CCCP (carbonyl cyanide m-chlorophenyl hydrazone) to the washed platelets. After incubation at 37° C. for 24 hours, the number of CD42b (GPIbα) (+) cells in the CD41a (+) platelets was measured by flow cytometry. Note that, it is known that addition of CCCP enhances GPIbα shedding on the surface of platelets (see Bergmeier et al., Blood, 2003, vol. 102, pp. 4229-4235).

T1 sequence (P78536 215-824): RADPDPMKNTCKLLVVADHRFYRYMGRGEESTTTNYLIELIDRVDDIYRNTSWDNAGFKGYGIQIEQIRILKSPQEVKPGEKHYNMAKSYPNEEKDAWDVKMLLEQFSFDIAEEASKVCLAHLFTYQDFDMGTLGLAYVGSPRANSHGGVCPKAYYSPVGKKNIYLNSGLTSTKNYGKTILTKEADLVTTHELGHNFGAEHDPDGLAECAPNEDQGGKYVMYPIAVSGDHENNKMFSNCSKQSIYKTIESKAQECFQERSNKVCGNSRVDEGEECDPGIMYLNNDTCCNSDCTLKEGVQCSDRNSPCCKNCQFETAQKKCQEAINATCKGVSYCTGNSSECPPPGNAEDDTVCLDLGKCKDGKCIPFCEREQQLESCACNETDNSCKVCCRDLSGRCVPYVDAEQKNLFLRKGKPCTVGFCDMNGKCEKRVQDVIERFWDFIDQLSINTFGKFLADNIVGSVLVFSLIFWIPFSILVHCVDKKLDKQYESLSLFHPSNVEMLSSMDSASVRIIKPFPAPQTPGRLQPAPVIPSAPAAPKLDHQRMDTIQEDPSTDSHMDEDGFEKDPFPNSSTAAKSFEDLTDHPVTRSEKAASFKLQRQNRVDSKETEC

The term IC50 denotes the concentration needed to halve the response being measured. With `Cc1cccn(CC2(c3ccc(F)c(F)c3)NC(=O)NC2=O)c1=O` (single isomer, unassigned; (+)) [(+)-I-10, (+)-5-(3,4-difluorophenyl)-5-[(3-methyl-2-oxopyridin-1(2H)-yl)methyl]imidazolidine-2,4-dione], the “number of obtained CD41a (+) CD42a (+) platelets compared with the medium control group” value in data set [1] (10 and 30 μM, treated for 9 to 10 days) is on record as “slightly larger”. In addition, the “percentage of CD41a (+) CD42a (+) CD42b (+) platelets compared with the medium control group” value in data set [1] (10 and 30 μM, treated for 9 to 10 days, listed as S-108470) is recorded as “significant increase; also recorded: increased the percentage of CD42b (+) cells”. The “cytotoxicity / impact on platelet differentiation” value in data set [1] (culture system using iPS cells) was “without exhibiting cytotoxicity or having any impact on platelet differentiation”. The half-inhibitory concentration (IC50) at TACE (ADAM17) (read-out: TACE IC50) was less than 100 nM; at TACE (ADAM17) (read-out: TACE inhibitory action, IC50 value), less than 100 nM. For the same molecule, in data set [2], the “inhibition of GPIbα shedding (CD42b (GPIbα) (+) cells in the CD41a (+) platelets)” value is “inhibits GPIbα shedding in a concentration-dependent manner; also recorded: suppressed in a concentration-dependent manner”.

In the case of `Cc1cccn(CC2(c3ccc(OC4CCCC4)cc3)NC(=O)NC2=O)c1=O` (racemic) [Compound I-124], at TACE (ADAM17) (read-out: TACE IC50), the half-maximal inhibitory concentration (IC50) is less than 100 nM. As for `Cc1cccn(CC2(c3ccc4c(c3)OCCCO4)NC(=O)NC2=O)c1=O` (racemic) [Compound I-105], the IC50 on TACE (ADAM17) (read-out: TACE IC50) was less than 100 nM. Still for that read-out and setting: for `COc1ccc(C2(Cn3cccc(C)c3=O)NC(=O)NC2=O)c(OC)c1` (racemic) [Compound I-18, 5-(2,4-dimethoxyphenyl)-5-[(3-methyl-2-oxopyridin-1(2H)-yl)methyl]imidazolidine-2,4-dione] the value was less than 100 nM; for `COc1ccc(C2(Cn3cccc(F)c3=O)NC(=O)NC2=O)cc1` (racemic) [Compound I-133], less than 100 nM. `COc1ccc(C2(Cn3cccc(C)c3=O)NC(=O)NC2=O)cc1F` (racemic) [Compound I-14, 5-(3-fluoro-4-methoxyphenyl)-5-[(3-methyl-2-oxopyridin-1(2H)-yl)methyl]imidazolidine-2,4-dione]: the IC50 at TACE (ADAM17) (read-out: TACE IC50) is less than 100 nM.

Turning to `COc1ccc(C2(Cn3cccc(Cl)c3=O)NC(=O)NC2=O)cc1` (racemic) [Compound I-137], the IC50 at TACE (ADAM17) (read-out: TACE IC50) was less than 100 nM. On the same count and under the same terms, next, `COc1ccccc1-c1ccc(C2(Cn3cccc(C)c3=O)NC(=O)NC2=O)cc1` (racemic) [Compound I-74]: less than 100 nM; `Cc1ccc(C2(Cn3cccc(C)c3=O)NC(=O)NC2=O)c(F)c1F` (racemic) [Compound I-128]: less than 100 nM; `Cc1cccn(CC2(c3cccc(-c4ccccn4)c3)NC(=O)NC2=O)c1=O` (racemic) [Compound I-94]: less than 100 nM.

In the case of `Cc1cccn(CC2(c3ccc(Oc4cccc(F)c4)c(F)c3)NC(=O)NC2=O)c1=O` (racemic) [Compound I-112], the IC50 at TACE (ADAM17) (read-out: TACE IC50) is less than 100 nM. Still for that read-out and setting: for `O=C1NC(=O)C(Cn2cccc(Cl)c2=O)(c2cc3ccccc3o2)N1` (racemic) [Compound I-51, 5-(benzofuran-2-yl)-5-[(3-chloro-2-oxopyridin-1(2H)-yl)methyl]imidazolidine-2,4-dione] the value was less than 100 nM; for `N#Cc1ccc(C2(Cn3cccc(Cl)c3=O)NC(=O)NC2=O)cc1` (racemic) [Compound I-138], less than 100 nM; for `O=C1NC(=O)C(Cn2cccc(CO)c2=O)(c2ccc(Cc3ccccc3)cc2)N1` (racemic) [Compound I-151], not below 100 nM. The same measure, in the same setting: for `Cc1cccn(CC2(c3ccc4c(c3)OCO4)NC(=O)NC2=O)c1=O` (racemic) [Compound I-65] the value was less than 100 nM; for `O=C1NC(=O)C(Cn2cccc(Cl)c2=O)(c2ccc(F)c(F)c2)N1` (racemic) [Compound I-146], less than 100 nM. Still for that read-out and setting: next, `Cc1cccn(CC2(c3ccc(Oc4cccc(C(F)(F)F)c4)cc3)NC(=O)NC2=O)c1=O` (racemic) [Compound I-100]: less than 100 nM; `COc1ccccc1C1(Cn2cccc(C)c2=O)NC(=O)NC1=O` (racemic) [Compound I-60]: not below 100 nM; `CCCc1ccc(C2(Cn3cccc(C)c3=O)NC(=O)NC2=O)cc1` (racemic) [Compound I-45, 5-[(3-methyl-2-oxopyridin-1(2H)-yl)methyl]-5-(4-propylphenyl)imidazolidine-2,4-dione]: less than 100 nM.

For the molecule `O=C1NC(=O)C(Cn2cccc(F)c2=O)(c2ccc(F)c(F)c2)N1` (racemic) [Compound I-145], the IC50 on TACE (ADAM17) (read-out: TACE IC50) was less than 100 nM. On the same count and under the same terms, next, `Cc1cccn(CC2(c3ccc(Sc4ccccc4)cc3)NC(=O)NC2=O)c1=O` (racemic) [Compound I-102]: less than 100 nM.
